{"source": "patent US12274728B2", "about": "“Preparation comprising omega-3 fatty acid salts and extracts of gum resins from Boswellia species” (Evonik Operations GmbH, priority 2019, dated 2025)", "system": "human monocyte-derived M1 macrophages", "assay": "Lipid mediator (LM) formation in human monocyte-derived M1 macrophages, UPLC-MS-MS", "assay_type": "cell-based", "conditions": "M1, single agents: extracts 50 μg/mL, AKBA 10 μM, AvailOm® 3 μg/mL, 180 min (FIG. 1)", "experimental": "Leukocyte concentrates from freshly withdrawn peripheral blood of healthy adult human donors were provided by the Institute of Transfusion Medicine, University Hospital Jena, Germany. The experimental protocol was approved by the ethical committee of the University Hospital Jena. All methods were performed in accordance with the relevant guidelines and regulations. Peripheral blood mononuclear cells (PBMC) were isolated using dextran sedimentation and Ficoll-Histopaque 1077-1 (Sigma-Aldrich, Taufkirchen, Germany) centrifugation. For differentiation and polarization towards M1 and M2, published criteria were used. […]\nMacrophages (2×10^6/ml) were incubated in PBS containing 1 mM CaCl2). […] Supernatants were transferred to 2 ml of ice-cold methanol containing 10 μl of deuterium-labeled internal standards (200 nM […], d4-LTB4, d5-LXA4, d5-RvD2, d4-PGE2 and 10 μM d8-AA) to facilitate quantification. […] LM profiling was analyzed with an Acquity™ UPLC system (Waters, Milford, MA) and a QTRAP 5500 Mass Spectrometer (ABSciex, Darmstadt, Germany) equipped with a Turbo VTM Source and electrospray ionization (ESI). […] Quantification was achieved by calibration curves for each LM. […]", "data": [{"substance": "3-O-acetyl-11-keto-beta-boswellic acid [AKBA]", "values": [{"measurement": "LM formation / LM biosynthesis", "result": "did not significantly elevate"}]}]}
